{"source": "patent US20210186905A1", "about": "“ENHANCING T-CELL FUNCTION AND TREATING A T-CELL DYSFUNCTIONAL DISORDER WITH A COMBINATION OF AN LSD INHIBITOR AND A PD-1 BINDING ANTAGONIST” (EpiAxis Therapeutic Pty Ltd, priority 2017, published 2021)", "key": {"LSD1": {"target": "LSD1 (Homo sapiens, UniProt O60341)", "details": "MDA-MB-231; TNFI of LSD1p and H3k4me2", "description": "(§1) A. MDA-MB-231 breast cancer cell line was treated with increasing doses of phenelzine sulfate (phenelzine). Immunofluorescence microscopy was performed on cells fixed and probed with primary anti-LSD1s111p and anti-H3k4me2 and DAPI. Representative images for each dataset are shown. Graph represents the TNFI values for LSD1p and H3k4me2 measured using ImageJ to select the nucleus minus background (n>20 individual cells). B. The effect of phenelzine sulfate on cell proliferation of MDA-MB-231 cells was analyzed using the WST-1 proliferation assay"}, "[1]": {"system": "MDA-MB-231 breast cancer cell line", "description": "as §1"}, "CD4+ and CD8+ T-cells": {"system": "CD4+ and CD8+ T-cells", "assay": "Flow cytometry, intracellular staining of IFN-γ, IL-2 and TNF-α after PMA/ionomycin", "format": "in vivo, mouse", "description": "FIG. 5 is a graphical representation showing that dual epigenetic-immunotherapy re-educates and re-programs the T-cell repertoire. A. Cells stimulated with PMA/ionomycin for 4 hours in the presence of Brefeldin A. Cells were surfaced stained with CD45, CD3, CD4, CD8, CD44, CD62L (for naïve, effector and central memory), CD25 and FoxP3 (for Tregs) and analyzed via Flow cytometry. A Mann-Whitney non-parametric t-test was used to compare control vs other groups (*p<0.05, n=2-5). […] Representative images for each dataset are shown. TNFI values for EOMES, TBET and Ki67 measured using Image) to select the nucleus minus background. Graphs represent the % change of expression relative to control group for CD8^+ T-cells. (n>20 individual cells, Group A=Control, Group C: PD1 (10 mg/kg), Group D: Phenelzine (40 mg/kg), Group F: PD1+Phenelzine). C. Cells stimulated with PMA/ionomycin for 4 hours in the presence of Brefeldin A. Cell were surfaced stained with CD45, CD3, CD4, CD8 and intracellular staining of IFN-γ, IL-2 and TNF-α in the presence of Brefeldin A and analyzed via flow cytometry. A Mann-Whitney non-parametric t-test was used to compare control vs other groups (*p<0.05, **p<0.008; n=2-5). […] Representative images for each dataset are shown. TNFI values for TNFα and IFNγ measured using ImageJ to select the nucleus minus background. Graphs represent the % change of expression relative to control group for CD8^+ T-cells. […]\nCells were surfaced stained with CD49b, F4/80 and intracellular stained for IFN-γ, TNF-α and IL-10. To label NK cells and the macrophages (M1/M2) in the tumor microenvironment or a suite of antibodies to label CD8^+ T-Cells (Cells were surfaced stained with CD45, CD3, CD4, CD8, CD44, CD62L (for naïve, effector and central memory). Cells were finally resuspended in PBS 2% FBS and flow cytometry performed on FACS Fortessa (BD) or FACS LSRII (BD). Analysis of data was done using FlowJo® analysis software and % cell populations calculated from the raw data. A Mann-Whitney non-parametric t-test was used to compare control vs other groups."}, "[2]": {"system": "T-cell activation and exhaustion genes", "assay": "Nanostring transcript analysis of CD8+ T-cells from 4T1 metastatic mouse model", "format": "in vivo", "description": "FIG. 5 is a graphical representation showing that dual epigenetic-immunotherapy re-educates and re-programs the T-cell repertoire. A. Cells stimulated with PMA/ionomycin for 4 hours in the presence of Brefeldin A. Cells were surfaced stained with CD45, CD3, CD4, CD8, CD44, CD62L (for naïve, effector and central memory), CD25 and FoxP3 (for Tregs) and analyzed via Flow cytometry. A Mann-Whitney non-parametric t-test was used to compare control vs other groups (*p<0.05, n=2-5). […] Representative images for each dataset are shown. TNFI values for EOMES, TBET and Ki67 measured using Image) to select the nucleus minus background. Graphs represent the % change of expression relative to control group for CD8^+ T-cells. (n>20 individual cells, Group A=Control, Group C: PD1 (10 mg/kg), Group D: Phenelzine (40 mg/kg), Group F: PD1+Phenelzine). C. Cells stimulated with PMA/ionomycin for 4 hours in the presence of Brefeldin A. Cell were surfaced stained with CD45, CD3, CD4, CD8 and intracellular staining of IFN-γ, IL-2 and TNF-α in the presence of Brefeldin A and analyzed via flow cytometry. A Mann-Whitney non-parametric t-test was used to compare control vs other groups (*p<0.05, **p<0.008; n=2-5). […] Representative images for each dataset are shown. TNFI values for TNFα and IFNγ measured using ImageJ to select the nucleus minus background. […]"}, "LSD1 and EOMES": {"target": "T1, LSD1 and EOMES (Mus musculus, UniProt Q6ZQ88)", "T1 construct": "CD8^+ T-cells isolated from the 4T1 metastatic xenograft mouse model; endogenous in cells; host or cells: CD8+ T-cells isolated from the tumour micro-environment of treated 4T1 mice", "assay": "Immunofluorescence co-expression and co-localization of LSD1 and EOMES in CD8+ T-cells", "format": "in vivo", "description": "FIG. 6 is a graphical and photographic representation depicting nuclear LSD1 complexes with EOMES in exhausted T-cell signatures. A. Nanostring transcript analysis was performed on isolated CD8^+ T-cells isolated from a 4T1 metastatic cancer mouse model treated with either Group A=Control, Group C: PD1 (10 mg/kg), Group D: Phenelzine (40 mg/kg), or Group F: PD1+Phenelzine. […] B. Immunofluorescence microscopy was performed on CD8^+ T-cells fixed and probed with primary anti-LSD1, anti-EOMES and anti-CD8 antibodies and DAPI. Representative images for each dataset are shown. […] C. […] Plot-profiles were plotted with the use of ImageJ software measuring a series of fluorescent intensities along a line spanning the nucleus. The pattern of the two plots can give an insight into the nature of the relationship between the two fluorochromes. Imagej software with automatic thresholding and manual selection ? for nucleus of cells was used to calculate the Pearson's co ? (PCC) for each pair of antibodies. The PCC Values range from −1=inverse of co-localization, 0=no co-localization, +1=perfect co-localization.\nTo unravel this role, the present inventors examined the co-expression of LSD1 and EOMES (an exhaustion marker) in CD8^+ T-cells isolated from the 4T1 metastatic xenograft mouse model.\nThis negative co-localization was unaffected by treatment with PD1 or LSD1 inhibitors (FIG. 7).\nA total of 2×10^5 cells were injected per mouse into mammary gland in 50 μL of phosphate buffered saline (PBS). Treatments were started on mice after 15 days post-inoculation of 4T1 cells. […] Tumors were measured using calipers and the tumor volumes (mm3) were calculated using the formula (length×width2)/2. ? arvested cells from primary tumors where then cytospun ? -treated with poly-1-lysine and fixed then stored in PBS for IFA Microscopy Analysis. […] Digital images were analysed using ImageJ software (ImageJ, NIH, Bethesda, Md., USA) to determine the either the Total Nuclear Fluorescent Intensity (TNFI), the Total Cytoplasmic Fluorescent Intensity (TCFI) or total Fluorescent Intensity (TFI)."}}, "note": "Structures can show the parent of a compound that is named as a salt."}
{"smiles": "NNCCc1ccccc1", "note": "(racemic) [phenelzine sulfate, (±)-2-phenylethylhydrazine]", "values": [{"measurement": "nuclear axis of LSD1, as measured by H3k4me2 de-methylation", "setting": "LSD1", "result": "inhibited"}, {"measurement": "proliferation of MDA-MB-231, as measured by the WST-1 assay", "setting": "[1]", "result": "inhibiting the proliferation"}, {"measurement": "IL-2 production by CD4+ T-cells", "setting": "CD4+ and CD8+ T-cells; CD4+ T-cells", "result": "much more efficient"}, {"measurement": "pro-inflammatory/Th1 response (IFN-γ, IL-2 and TNF-α)", "setting": "CD4+ and CD8+ T-cells; CD4+ and CD8+ T-cells, compared to the control", "result": "better pro-inflammatory/Th1 response"}, {"measurement": "production of these cytokines (IFN-γ, IL-2, TNF-α)", "setting": "CD4+ and CD8+ T-cells; as compared to the control", "result": "seems to increase"}, {"measurement": "exhaustive signature genes such as CTLA4 and LAG3", "setting": "[2]", "result": "inhibited"}, {"measurement": "EOMES expression", "setting": "LSD1 and EOMES; CD8+ T-cells, nuclear TNFI", "result": "marked inhibition"}, {"measurement": "LSD1 expression", "setting": "LSD1 and EOMES; CD8+ T-cells, nuclear TNFI", "result": "marked inhibition"}, {"measurement": "LSD1/EOMES nuclear protein complex (co-localization, plot-profiles and PCC)", "setting": "LSD1 and EOMES; nucleus of exhausted CD8+ T-cells", "result": "markedly inhibited"}]}
